Laboratory results reported in PubChem BioAssay AID1963842 (Molecular Pharmacology Branch, DTP, NCI, 2024).
pIC50: −log10 of the molar value.

Test system: 677734-321-R-J1-PDC complex spheroid viability
Assay: Anticancer human tumor 677734-321-R-J1-PDC patient-derived soft tissue sarcoma cell line growth inhibition [POLQ]
Details: for pIC50: curve of first compound; for viability, T/C: stronger effect = lower value
Procedure, shortened: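 Growth inhibition in 3D: complex spheroids (tumor PDC, HUVEC, MSC) treated with POLQ inhibitor combinations; where Cmax unknown, highest tested concentration 10 microM, except SN-38 at 1 microM.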

[1] = second compound 0.0316 µM, first compound 0.0316 µM
[2] = second compound 0.0316 µM, first compound 0.1 µM
[3] = second compound 0.0316 µM, first compound 0.316 µM
[4] = second compound 0.0316 µM, first compound 1 µM
[5] = second compound 0.1 µM, first compound 0.0316 µM
[6] = second compound 0.1 µM, first compound 0.1 µM
[7] = second compound 0.1 µM, first compound 0.316 µM
[8] = second compound 0.1 µM, first compound 1 µM
[9] = second compound 0.316 µM, first compound 0.0316 µM
[10] = second compound 0.316 µM, first compound 0.1 µM
[11] = second compound 0.316 µM, first compound 0.316 µM
[12] = second compound 0.316 µM, first compound 1 µM
[13] = second compound 1 µM, first compound 0.0316 µM
[14] = second compound 1 µM, first compound 0.1 µM
[15] = second compound 1 µM, first compound 0.316 µM
[16] = second compound 1 µM, first compound 1 µM
[17] = second compound 3.16 µM, first compound 0.0316 µM
[18] = second compound 3.16 µM, first compound 0.1 µM
[19] = second compound 3.16 µM, first compound 0.316 µM
[20] = second compound 3.16 µM, first compound 1 µM
[21] = second compound 10 µM, first compound 0.0316 µM
[22] = second compound 10 µM, first compound 0.1 µM
[23] = second compound 10 µM, first compound 0.316 µM
[24] = second compound 10 µM, first compound 1 µM
[25] = second compound 0.0316 µM, first compound 3.16 µM
[26] = second compound 0.0316 µM, first compound 10 µM
[27] = second compound 0.1 µM, first compound 3.16 µM
[28] = second compound 0.1 µM, first compound 10 µM
[29] = second compound 0.316 µM, first compound 3.16 µM
[30] = second compound 0.316 µM, first compound 10 µM
[31] = second compound 1 µM, first compound 3.16 µM
[32] = second compound 1 µM, first compound 10 µM
[33] = second compound 3.16 µM, first compound 3.16 µM
[34] = second compound 3.16 µM, first compound 10 µM
[35] = second compound 10 µM, first compound 3.16 µM
[36] = second compound 10 µM, first compound 10 µM
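Further: spheroids exposed to compounds for one week.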
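Wherever viability, T/C is given: 100% = vehicle DMSO treated spheroids.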

Compound: CCc1c2c(nc3ccc(O)cc13)-c1cc3c(c(=O)n1C2)COC(=O)[C@]3(O)CC + Cc1cccc(N(C)C(=O)C2C(O)CCN2c2nc(C)cc(C(F)(F)F)c2C#N)c1
- pIC50 (second compound 0.0316 µM): > 8.50
- pIC50 (second compound 0.1 µM): > 8.50
- pIC50 (second compound 0.316 µM): > 8.50
- pIC50 (second compound 1 µM): > 8.50
- pIC50 (second compound 3.16 µM): > 8.50
- pIC50 (second compound 10 µM): > 8.50
- viability, T/C (second compound 0.0316 µM, first compound 0.00316 µM): 34%
- viability, T/C (second compound 0.0316 µM, first compound 0.01 µM): 20.2%
- viability, T/C [1]: 5.31%
- viability, T/C [2]: 2.32%
- viability, T/C [3]: 1.63%
- viability, T/C [4]: 1.3%
- viability, T/C (second compound 0.1 µM, first compound 0.00316 µM): 26.2%
- viability, T/C (second compound 0.1 µM, first compound 0.01 µM): 15.4%
- viability, T/C [5]: 5.43%
- viability, T/C [6]: 2.52%
- viability, T/C [7]: 1.76%
- viability, T/C [8]: 2.63%
- viability, T/C (second compound 0.316 µM, first compound 0.00316 µM): 28%
- viability, T/C (second compound 0.316 µM, first compound 0.01 µM): 18.8%
- viability, T/C [9]: 4.71%
- viability, T/C [10]: 2.82%
- viability, T/C [11]: 1.97%
- viability, T/C [12]: 2.54%
- viability, T/C (second compound 1 µM, first compound 0.00316 µM): 30.3%
- viability, T/C (second compound 1 µM, first compound 0.01 µM): 15.7%
- viability, T/C [13]: 5.16%
- viability, T/C [14]: 2.53%
- viability, T/C [15]: 1.97%
- viability, T/C [16]: 2.5%
- viability, T/C (second compound 3.16 µM, first compound 0.00316 µM): 36.4%
- viability, T/C (second compound 3.16 µM, first compound 0.01 µM): 13.5%
- viability, T/C [17]: 4.68%
- viability, T/C [18]: 2.35%
- viability, T/C [19]: 2.92%
- viability, T/C [20]: 1.89%
- viability, T/C (second compound 10 µM, first compound 0.00316 µM): 28.2%
- viability, T/C (second compound 10 µM, first compound 0.01 µM): 15.4%
- viability, T/C [21]: 5.22%
- viability, T/C [22]: 3.2%
- viability, T/C [23]: 3.11%
- viability, T/C [24]: 1.34%

Compound: COc1cccc2c1C(=O)c1c(O)c3c(c(O)c1C2=O)CC(O)(C(=O)CO)CC3OC1CC(N)C(O)C(C)O1 (stereo unspecified) + Cc1cccc(N(C)C(=O)C2C(O)CCN2c2nc(C)cc(C(F)(F)F)c2C#N)c1
- pIC50 (second compound 0.0316 µM): 6.85
- pIC50 (second compound 0.1 µM): 6.91
- pIC50 (second compound 0.316 µM): 6.94
- pIC50 (second compound 1 µM): 7.08
- pIC50 (second compound 3.16 µM): 7.08
- pIC50 (second compound 10 µM): 7.10
- viability, T/C [1]: 73.8%
- viability, T/C [2]: 68.2%
- viability, T/C [3]: 8.09%
- viability, T/C [4]: 0.74%
- viability, T/C [25]: 1.88%
- viability, T/C [26]: 3.67%
- viability, T/C [5]: 77.1%
- viability, T/C [6]: 59.3%
- viability, T/C [7]: 7.54%
- viability, T/C [8]: 0.78%
- viability, T/C [27]: 3.07%
- viability, T/C [28]: 5.78%
- viability, T/C [9]: 89.2%
- viability, T/C [10]: 55.7%
- viability, T/C [11]: 9.71%
- viability, T/C [12]: 0.66%
- viability, T/C [29]: 2.56%
- viability, T/C [30]: 5.49%
- viability, T/C [13]: 102%
- viability, T/C [14]: 40.4%
- viability, T/C [15]: 7.53%
- viability, T/C [16]: 0.6%
- viability, T/C [31]: 2.63%
- viability, T/C [32]: 4.09%
- viability, T/C [17]: 99.3%
- viability, T/C [18]: 41%
- viability, T/C [19]: 6.13%
- viability, T/C [20]: 0.63%
- viability, T/C [33]: 3.14%
- viability, T/C [34]: 4.04%
- viability, T/C [21]: 94%
- viability, T/C [22]: 39%
- viability, T/C [23]: 5.5%
- viability, T/C [24]: 1.83%
- viability, T/C [35]: 3.46%
- viability, T/C [36]: 3.24%

Compound: O=c1[nH]cc(F)c(=O)[nH]1 + Cc1cccc(N(C)C(=O)C2C(O)CCN2c2nc(C)cc(C(F)(F)F)c2C#N)c1
- pIC50 (second compound 0.0316 µM): 5.27
- pIC50 (second compound 0.1 µM): 5.53
- pIC50 (second compound 0.316 µM): 5.50
- pIC50 (second compound 1 µM): 5.23
- pIC50 (second compound 3.16 µM): 5.16
- pIC50 (second compound 10 µM): 5.54
- viability, T/C [1]: 104%
- viability, T/C [2]: 110%
- viability, T/C [3]: 111%
- viability, T/C [4]: 93.9%
- viability, T/C [25]: 54.6%
- viability, T/C [26]: 44.9%
- viability, T/C [5]: 107%
- viability, T/C [6]: 103%
- viability, T/C [7]: 104%
- viability, T/C [8]: 76.5%
- viability, T/C [27]: 49.2%
- viability, T/C [28]: 44.8%
- viability, T/C [9]: 112%
- viability, T/C [10]: 108%
- viability, T/C [11]: 103%
- viability, T/C [12]: 97.7%
- viability, T/C [29]: 49.8%
- viability, T/C [30]: 47.2%
- viability, T/C [13]: 104%
- viability, T/C [14]: 106%
- viability, T/C [15]: 108%
- viability, T/C [16]: 90.9%
- viability, T/C [31]: 55.9%
- viability, T/C [32]: 45.1%
- viability, T/C [17]: 108%
- viability, T/C [18]: 105%
- viability, T/C [19]: 112%
- viability, T/C [20]: 101%
- viability, T/C [33]: 54.3%
- viability, T/C [34]: 48%
- viability, T/C [21]: 104%
- viability, T/C [22]: 99.3%
- viability, T/C [23]: 105%
- viability, T/C [24]: 83%
- viability, T/C [35]: 47.6%
- viability, T/C [36]: 46.8%
